# Laboratory results taken from ChEMBL document CHEMBL3745710, “Synthesis, antibacterial and anti-MRSA activity, in vivo toxicity and a structure-activity relationship study of a quinoline thiourea” (Bioorg Med Chem Lett, 2016).
# Calls of active or inactive are those of the source. No cut-off for these calls is given here.
# Assays:
# Pseudomonas aeruginosa = experiment: Antibacterial activity against Pseudomonas aeruginosa ATCC 10145 after 24 hrs by serial dilution method; assay type: functional, organism-based
# Staphylococcus aureus [1] = experiment: Antibacterial activity against Staphylococcus aureus NCIMB 12702 after 24 hrs by serial dilution method; assay type: functional; conditions: for MIC90 / MIC50 / MIC80: Staphylococcus aureus, NCIMB 12702, 24 h
# Escherichia coli = experiment: Antibacterial activity against Escherichia coli NCIMB 9485 after 24 hrs by serial dilution method; assay type: functional; conditions: for MIC90 / MIC50 / MIC80: NCIMB 9485, 24 h
# [2] = Toxicity in sixth development stage of Galleria mellonella larvae assessed as survival rate at 50 ug/ml after 24 hrs; assay type: organism-based; conditions: in vivo
# [3] = Toxicity in sixth development stage of Galleria mellonella larvae assessed as survival rate at 50 ug/ml after 72 hrs; assay type: organism-based; conditions: in vivo
# [4] = Toxicity in sixth development stage of Galleria mellonella larvae assessed as survival rate at 100 ug/ml after 72 hrs; assay type: organism-based; conditions: in vivo
# [5] = Toxicity in sixth development stage of Galleria mellonella larvae assessed as survival rate at 50 ug/ml after 48 hrs; assay type: organism-based; conditions: in vivo
# Galleria mellonella = experiment: Toxicity in sixth development stage of Galleria mellonella larvae assessed as larvae pupation at 1 to 1000 ug/ml after 7 days relative to control; assay type: organism-based; conditions: in vivo, 168 h
# [6] = Toxicity in sixth development stage of Galleria mellonella larvae assessed as survival rate at 10 ug/ml after 24 hrs; assay type: organism-based; conditions: in vivo
# [7] = Toxicity in sixth development stage of Galleria mellonella larvae assessed as survival rate at 1 ug/ml after 24 hrs; assay type: organism-based; conditions: in vivo
# [8] = Toxicity in sixth development stage of Galleria mellonella larvae assessed as survival rate at 1 ug/ml after 72 hrs; assay type: organism-based; conditions: in vivo
# [9] = Toxicity in sixth development stage of Galleria mellonella larvae assessed as survival rate at 1000 ug/ml after 24 hrs; assay type: organism-based; conditions: in vivo
# [10] = Toxicity in sixth development stage of Galleria mellonella larvae assessed as survival rate at 100 ug/ml after 24 hrs; assay type: organism-based; conditions: in vivo
# [11] = Toxicity in sixth development stage of Galleria mellonella larvae assessed as survival rate at 100 ug/ml after 48 hrs; assay type: organism-based; conditions: in vivo
# [12] = Toxicity in sixth development stage of Galleria mellonella larvae assessed as survival rate at 1000 ug/ml after 48 hrs; assay type: organism-based; conditions: in vivo
# [13] = Toxicity in sixth development stage of Galleria mellonella larvae assessed as survival rate at 10 ug/ml after 72 hrs; assay type: organism-based; conditions: in vivo
# [14] = Toxicity in sixth development stage of Galleria mellonella larvae assessed as survival rate at 1 ug/ml after 48 hrs; assay type: organism-based; conditions: in vivo
# [15] = Toxicity in sixth development stage of Galleria mellonella larvae assessed as survival rate at 1000 ug/ml after 72 hrs; assay type: organism-based; conditions: in vivo
# [16] = Toxicity in sixth development stage of Galleria mellonella larvae assessed as survival rate at 10 ug/ml after 48 hrs; assay type: organism-based; conditions: in vivo
# Staphylococcus aureus [17] = experiment: Antibacterial activity against methicillin-resistant Staphylococcus aureus after 24 hrs by serial dilution method; assay type: functional
smiles,measurement,setting,value
COC(=O)[C@@H]1C[C@H](NC(=S)Nc2cc(C(F)(F)F)cc(C(F)(F)F)c2)CN1,MIC,Pseudomonas aeruginosa,inactive
same,MIC90,Staphylococcus aureus [1],> 200 µM
same,MIC90,Escherichia coli,> 200 µM
C=C[C@H]1CN2CC[C@H]1C[C@H]2[C@@H](NC(=S)Nc1ccccc1)c1ccnc2ccc(OC)cc12,survival at 24 h,[2],100%
same,survival at 72 h,[3],100%
same,survival at 72 h,[4],100%
same,survival at 48 h,[5],100%
same,Activity,Galleria mellonella,Non-toxic
same,survival at 24 h,[6],100%
same,MIC,Pseudomonas aeruginosa,inactive
same,survival at 24 h,[7],100%
same,MIC50,Staphylococcus aureus [1],54.6 µM
same,MIC90,Staphylococcus aureus [1],164 µM
same,MIC50,Escherichia coli,40.9 µM
same,MIC90,Escherichia coli,81.8 µM
same,survival at 72 h,[8],100%
same,survival at 24 h,[9],100%
same,survival at 24 h,[10],100%
same,survival at 48 h,[11],100%
same,survival at 48 h,[12],100%
same,survival at 72 h,[13],100%
same,survival at 48 h,[14],100%
same,survival at 72 h,[15],100%
same,survival at 48 h,[16],100%
CN[C@@H](CC(C)C)C(=O)N[C@H]1C(=O)N[C@@H](CC(N)=O)C(=O)N[C@H]2C(=O)N[C@H]3C(=O)N[C@H](C(=O)N[C@@H](C(=O)O)c4cc(O)cc(O)c4-c4cc3ccc4O)[C@H](O)c3ccc(c(Cl)c3)Oc3cc2cc(c3O[C@H]2O[C@@H](CO)[C@H](O)[C@@H](O)[C@@H]2O[C@@H]2C[C@@](C)(N)[C@@H](O)[C@@H](C)O2)Oc2ccc(cc2Cl)[C@H]1O [listing 1 of 2 here],MIC90,Staphylococcus aureus [17],1.35 µM
CN(C)[C@@H]1CCCC[C@H]1NC(=S)Nc1cc(C(F)(F)F)cc(C(F)(F)F)c1,MIC,Pseudomonas aeruginosa,inactive
same,MIC80,Staphylococcus aureus [1],90.8 µM
same,MIC50,Escherichia coli,23.8 µM
same,MIC80,Escherichia coli,90.8 µM
same,MIC90,Escherichia coli,120 µM
same,MIC50,Staphylococcus aureus [17],21.5 µM
same,MIC90,Staphylococcus aureus [17],32.2 µM
CCC1CN2CCC1C[C@@H]2[C@@H](Oc1nnc(O[C@@H](c2ccnc3ccc(OC)cc23)[C@H]2CC3CCN2CC3CC)c2ccccc12)c1ccnc2ccc(OC)cc12 (stereo partly drawn),MIC,Pseudomonas aeruginosa,inactive
same,MIC90,Staphylococcus aureus [1],189 µM
same,MIC90,Escherichia coli,> 200 µM
CCC1CN2CCC1CC2[C@@H](Oc1cc2ccccc2c2ccccc12)c1ccnc2ccc(OC)cc12 (stereo partly drawn),MIC,Pseudomonas aeruginosa,inactive
same,MIC90,Staphylococcus aureus [1],> 200 µM
same,MIC90,Escherichia coli,> 200 µM
C=CC1CN2CCC1CC2[C@@H](Oc1cc(C)c2ccccc2n1)c1ccnc2ccc(OC)cc12 (stereo partly drawn),MIC,Pseudomonas aeruginosa,inactive
same,MIC90,Staphylococcus aureus [1],115 µM
same,MIC90,Escherichia coli,> 200 µM
CN[C@@H](CC(C)C)C(=O)N[C@H]1C(=O)N[C@@H](CC(N)=O)C(=O)N[C@H]2C(=O)N[C@H]3C(=O)N[C@H](C(=O)N[C@@H](C(=O)O)c4cc(O)cc(O)c4-c4cc3ccc4O)[C@H](O)c3ccc(c(Cl)c3)Oc3cc2cc(c3O[C@H]2O[C@@H](CO)[C@H](O)[C@@H](O)[C@@H]2O[C@@H]2C[C@@](C)(N)[C@@H](O)[C@@H](C)O2)Oc2ccc(cc2Cl)[C@H]1O [listing 2 of 2 here],MIC50,Staphylococcus aureus [1],1.58 µM
same,MIC80,Staphylococcus aureus [1],3.16 µM
same,MIC90,Staphylococcus aureus [1],4.21 µM
same,MIC50,Escherichia coli,1.58 µM
same,MIC80,Escherichia coli,2.1 µM
same,MIC90,Escherichia coli,4.21 µM
CCNC(=S)Nc1cc(C(F)(F)F)cc(C(F)(F)F)c1,MIC,Pseudomonas aeruginosa,inactive
same,MIC50,Staphylococcus aureus [1],> 316 µM
same,MIC90,Staphylococcus aureus [1],> 316 µM
same,MIC50,Escherichia coli,158 µM
same,MIC90,Escherichia coli,> 316 µM
C=C[C@H]1CN2CC[C@H]1C[C@H]2[C@@H](N)c1ccnc2ccc(OC)cc12,MIC,Pseudomonas aeruginosa,inactive
same,MIC50,Staphylococcus aureus [1],> 309 µM
same,MIC90,Staphylococcus aureus [1],> 309 µM
same,MIC50,Escherichia coli,> 309 µM
same,MIC90,Escherichia coli,309 µM
CNC(=S)Nc1cc(C(F)(F)F)cc(C(F)(F)F)c1,MIC,Pseudomonas aeruginosa,inactive
same,MIC,Staphylococcus aureus [1],inactive
same,MIC,Escherichia coli,inactive
C=C[C@H]1CN2CC[C@H]1C[C@H]2[C@@H](NC(=S)Nc1cc(C(F)(F)F)cc(C(F)(F)F)c1)c1ccnc2ccc(OC)cc12,survival at 24 h,[2],100%
same,survival at 72 h,[3],100%
same,survival at 72 h,[4],100%
same,survival at 48 h,[5],100%
same,Activity,Galleria mellonella,Non-toxic
same,survival at 24 h,[6],100%
same,MIC,Pseudomonas aeruginosa,inactive
same,survival at 24 h,[7],100%
same,MIC50,Staphylococcus aureus [1],3.95 µM
same,MIC80,Staphylococcus aureus [1],7.9 µM
same,MIC90,Staphylococcus aureus [1],10.5 µM
same,MIC50,Escherichia coli,2.63 µM
same,MIC80,Escherichia coli,5.26 µM
same,MIC90,Escherichia coli,7.9 µM
same,survival at 72 h,[8],97%
same,survival at 24 h,[9],100%
same,survival at 24 h,[10],100%
same,survival at 48 h,[11],100%
same,survival at 48 h,[12],100%
same,survival at 72 h,[13],100%
same,survival at 48 h,[14],97%
same,MIC50,Staphylococcus aureus [17],11.4 µM
same,MIC90,Staphylococcus aureus [17],17.7 µM
same,survival at 72 h,[15],100%
same,survival at 48 h,[16],100%
CCC1CN2CCC1CC2[C@@H](OC(=O)c1ccc(Cl)cc1)c1ccnc2ccc(OC)cc12 (stereo partly drawn),MIC,Pseudomonas aeruginosa,inactive
same,MIC90,Staphylococcus aureus [1],79.4 µM
same,MIC90,Escherichia coli,> 200 µM
CCC1CN2CCC1C[C@H]2[C@@H](Oc1ccc(O[C@@H](c2ccnc3ccc(OC)cc23)[C@@H]2CC3CCN2CC3CC)c2c1C(=O)c1ccccc1C2=O)c1ccnc2ccc(OC)cc12 (stereo partly drawn),MIC,Pseudomonas aeruginosa,inactive
same,MIC82,Staphylococcus aureus [1],124.9 µM
same,MIC90,Escherichia coli,> 200 µM
CCC1CN2CCC1C[C@@H]2[C@@H](Oc1nc(-c2ccccc2)nc(O[C@@H](c2ccnc3ccc(OC)cc23)[C@H]2CC3CCN2CC3CC)c1-c1ccccc1)c1ccnc2ccc(OC)cc12 (stereo partly drawn),MIC,Pseudomonas aeruginosa,inactive
same,MIC90,Staphylococcus aureus [1],> 200 µM
same,MIC90,Escherichia coli,> 200 µM
C=CC1CN2CCC1CC2[C@H](OCc1ccccc1)c1ccnc2ccc(OC)cc12 (stereo partly drawn),MIC,Pseudomonas aeruginosa,inactive
same,MIC90,Staphylococcus aureus [1],> 200 µM
same,MIC90,Escherichia coli,> 200 µM
FC(F)(F)c1cc(NC(=S)Nc2ccccc2)cc(C(F)(F)F)c1,survival at 24 h,[2],100%
same,survival at 72 h,[3],100%
same,survival at 72 h,[4],100%
same,survival at 48 h,[5],100%
same,Activity,Galleria mellonella,Non-toxic
same,survival at 24 h,[6],100%
same,MIC,Pseudomonas aeruginosa,inactive
same,survival at 24 h,[7],100%
same,MIC50,Staphylococcus aureus [1],> 275 µM
same,MIC80,Staphylococcus aureus [1],> 275 µM
same,MIC90,Staphylococcus aureus [1],> 275 µM
same,MIC50,Escherichia coli,51.5 µM
same,MIC80,Escherichia coli,103 µM
same,MIC90,Escherichia coli,206 µM
same,survival at 72 h,[8],100%
same,survival at 24 h,[9],100%
same,survival at 24 h,[10],100%
same,survival at 48 h,[11],100%
same,survival at 48 h,[12],100%
same,survival at 72 h,[13],100%
same,survival at 48 h,[14],100%
same,survival at 72 h,[15],100%
same,survival at 48 h,[16],100%
CN(C)CCNC(=S)Nc1cc(C(F)(F)F)cc(C(F)(F)F)c1,MIC,Pseudomonas aeruginosa,inactive
same,MIC,Staphylococcus aureus [1],inactive
same,MIC,Escherichia coli,inactive
FC(F)(F)c1cc(NC(=S)NC2CCCCC2)cc(C(F)(F)F)c1,MIC,Pseudomonas aeruginosa,inactive
same,MIC50,Staphylococcus aureus [1],135 µM
same,MIC90,Staphylococcus aureus [1],> 270 µM
same,MIC50,Escherichia coli,101 µM
same,MIC90,Escherichia coli,> 270 µM
